The values below come from paper PMC4122355, “Inhibitor of the Tyrosine Phosphatase STEP Reverses Cognitive Deficits in a Mouse Model of Alzheimer's Disease” (PLoS Biology, 2014).

One assay deals with T1, STEP (Mus musculus, UniProt P54830).
T1 sequence (P54830 1-541): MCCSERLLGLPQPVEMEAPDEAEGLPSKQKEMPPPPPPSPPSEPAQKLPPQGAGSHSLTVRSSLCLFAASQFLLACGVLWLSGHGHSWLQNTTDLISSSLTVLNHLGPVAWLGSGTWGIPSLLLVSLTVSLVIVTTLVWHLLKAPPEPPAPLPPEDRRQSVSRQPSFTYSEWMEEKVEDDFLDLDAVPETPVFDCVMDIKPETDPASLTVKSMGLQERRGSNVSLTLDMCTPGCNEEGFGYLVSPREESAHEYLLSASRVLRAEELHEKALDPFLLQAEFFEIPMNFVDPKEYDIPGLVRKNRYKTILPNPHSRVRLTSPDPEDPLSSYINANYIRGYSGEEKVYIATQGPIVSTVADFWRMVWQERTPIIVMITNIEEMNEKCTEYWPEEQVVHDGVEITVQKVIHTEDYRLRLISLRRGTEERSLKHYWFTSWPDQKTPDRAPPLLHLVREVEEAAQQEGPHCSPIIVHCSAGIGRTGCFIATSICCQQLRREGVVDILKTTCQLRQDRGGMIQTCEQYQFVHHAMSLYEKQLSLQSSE
The experiment in a line: Recovery of STEP activity by reducing agents. The following applies: after 1 h, DMSO control = 100%. It counts as biochemical. As to the method:
Each sample was aliquoted out and 50 µL was transferred to wells of a 96-well microtiter plate containing 40 µL of 2× assay buffer with added reductant (GSH or DTT, 1 mM final concentration) and shaken for 0, 15, 30, or 60 additional minutes at ambient temperature. The reaction was started by addition of 10 µL of 10× pNPP substrate (stock, 20 mM, 2 mM in assay; total assay volume, 100 µL), and reaction progress was immediately monitored at 405 nm at a temperature of 27°C. The initial rate data collected were used to determine enzyme activity standardized to the DMSO controls.

The subject of another assay is Aβ and phospho-tau. Briefly: Aβ and phospho-tau levels in 12-mo-old 3xTg-AD mice. The assay is classed as in vivo, mouse. Conditions: 10 mg/kg i.p. As to the method: Time spent with either a novel or familiar object was recorded using ANY-maze software. Square-root transformation was used to meet the assumptions of normality and equal variance of the raw data. All histograms are presented as means ± s.e.m. Student's t test was applied to determine significance differences (*p<0.05; WT-Veh, n = 10; WT TC, n = 11; AD-Veh, n = 22; AD-TC, n = 19). […] CTFs and Aβ are indicated by arrowheads. Representative 7PA2-CM (Aβ-enriched conditioned medium) immunoprecipitation is shown on right panel. Data are presented as means ± s.e.m. […] Data are presented as means ± s.e.m. […] (TIF) Click here for additional data file.

In assay [1] the test system is GluN2B (Y1472), Pyk2 (Y402), ERK1/2 (Y204/187) in cortical neurons. Briefly: Tyr phosphorylation of STEP substrates in cortical neuronal cultures (Western blot). The following applies: 1 µM dose, 1 h, relative to vehicle. The assay is classed as cell-based, rat. As to the method:
(§1) Primary cortical neurons were isolated from Sprague Dawley rat embryos (E18) (Charles River Laboratories, Wilmington, MA) as previously described. In some experiments, cortical neurons were made from WT and STEP KO mouse embryos (E18). Neurons were allowed to grow for 18–21 d in CO2 incubator before addition of compounds at indicated doses for 1 h. Immediately following treatments, neurons were lysed in RadioImmuno Precipitation Assay (RIPA) buffer supplied with protease inhibitor cocktail (Roche Applied Science, Indianapolis, IN) and phosphatase inhibitors (NaF and Na3VO4). All experiments were replicated four times with four independent batches of cultures.
(§2) Samples were prepared and resolved by SDS-PAGE, transferred to nitrocellulose membrane, and incubated with phospho-specific antibodies (anti-pY^204/187 ERK1/2, anti-pY^402 Pyk2, anti-pY^1472 GluN2B) or total protein antibodies (anti-ERK2, anti-Pyk2, and anti-NR2B) overnight at 4°C. Immunoreactivity was visualized using a Chemiluminescent substrate kit (Pierce Biotechnology, Rockford, IL) and detected using a G:BOX with the image program GeneSnap (Syngene, Cambridge, UK). All densitometric quantifications were performed using the Genetools program.
In general terms: Immunoblotting shows a protein as a band on a membrane.

Assay [2] concerns GluN2B Y1472, Pyk2 Y402, ERK1/2 Y204/187 in WT and STEP KO cortical neurons. The experiment in a line: Tyr phosphorylation of STEP substrates in WT and STEP KO mouse cortical cultures. It counts as cell-based. The following applies: 1 h. As to the method: as §1, §2
The next assay has as its system 3xTg-AD and WT mice. Briefly: Y-maze alternation task. Conditions: 10 mg/kg i.p. 3 h prior. The assay is classed as in vivo, mouse. How it is done: The Y-maze apparatus consisted of three dark gray arms (42×4.8×20 cm). […] The total number of arm entries was recorded, as was the number of entries representing alternation behavior (i.e., sequential entry into all three arms). All four paws of the mouse had to enter an arm for it to count as an arm entry. Percentage spontaneous alternation = (number of alternations)/(total arm entries – 2). […] A total number of 20 WT and 11 AD mice were used in the Y-maze task.

The next assay deals with T2, PTP1B (Homo sapiens, UniProt P18031).
T2 construct: GST (N); host or cells: E. coli BL21 (DE3)
T2 sequence (P18031 1-435): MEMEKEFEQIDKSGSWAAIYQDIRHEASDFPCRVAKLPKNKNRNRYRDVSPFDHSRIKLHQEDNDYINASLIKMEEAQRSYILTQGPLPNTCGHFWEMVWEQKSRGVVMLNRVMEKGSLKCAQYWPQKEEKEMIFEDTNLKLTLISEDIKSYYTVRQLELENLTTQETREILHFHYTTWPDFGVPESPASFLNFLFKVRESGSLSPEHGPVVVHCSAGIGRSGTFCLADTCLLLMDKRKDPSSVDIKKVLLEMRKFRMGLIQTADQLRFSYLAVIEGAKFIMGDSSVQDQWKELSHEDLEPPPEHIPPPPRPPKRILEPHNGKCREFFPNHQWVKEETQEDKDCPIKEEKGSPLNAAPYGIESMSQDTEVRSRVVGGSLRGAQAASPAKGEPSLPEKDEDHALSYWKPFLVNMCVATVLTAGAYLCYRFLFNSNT
The experiment in a line: Selectivity pNPP assay, full-length PTPs: PTP1B. Conditions: full-length PTP, 10 nM, 500 µM pNPP. The assay is classed as biochemical. The text has this:
Constructs were transformed into BL21 (DE3) E. coli cells. Fusion proteins were purified on a glutathione sepharose column.

For orientation: IC50 means the concentration that gives 50% inhibition. In the case of `Cl.Nc1cc(C(F)(F)F)cc2c1SSSSS2` [TC-2153, 8-(trifluoromethyl)-1,2,3,4,5-benzopentathiepin-6-amine hydrochloride], on STEP (STEP 200 nM preincubated with 5 µM TC-2153, 1 mM DTT), the “Recovery of STEP activity with DTT” value came to 75%. Further, the “Recovery of STEP activity with GSH” value on STEP (STEP 200 nM preincubated with 5 µM TC-2153, 1 mM GSH) is 29%. The “Aβ or phospho-tau levels” value in the assay with Aβ and phospho-tau is reported as “no significant changes in Aβ or phospho-tau levels”. For the same compound, the “Aβ or phospho-tau levels” value in the assay with Aβ and phospho-tau (row) is “did not affect the Aβ and tau brain pathology”. Moreover, in assay [1], the “pERK1/2 (Y204/187), phospho-signal normalized to total protein and GAPDH” value amounted to 2.39±0.18; the “pGluN2B (Y1472), phospho-signal normalized to total protein and GAPDH” value is reported as 2.07±0.15; the “pPyk2 (Y402), phospho-signal normalized to total protein and GAPDH” value is on record as 1.81±0.21. Besides, in assay [2] (STEP KO cultures, TC-2153 0.1 and 1 µM, Na3VO4 1 mM), the “Tyr phosphorylation of STEP substrates in STEP KO cortical cultures” value was “failed to increase the phosphorylation of STEP substrates”. For the same compound, the “Tyr phosphorylation of STEP substrates in WT mouse cortical neurons” value in assay [2] (WT cultures, 0.1 and 1 µM) was “an increase in the Tyr phosphorylation of STEP substrates”. Further, the “Y-maze arm entries (general motor activity)” value in the assay on 3xTg-AD and WT mice is reported as “no significant change in arm entries”. The “Y-maze percentage spontaneous alternation, WT mice” value in the assay on 3xTg-AD and WT mice (WT mice, vehicle 74.98±2.19) is reported as 73.45±3.19. This compound registered an IC50 at PTP1B of 0.7239 ± 0.0012 µM.
